Experimental findings from US20230091225A1, “Bifunctional chimeric heterocyclic compounds for targeted degradation of androgen receptors and use thereof” (HINOVA PHARMACEUTICALS INC., priority 2019, published 2023) are described below.

Common to all, as to type: cell-based
The target in assay [1] is T1, androgen receptor (AR) (Homo sapiens, UniProt P10275).
T1 sequence (P10275 1-920): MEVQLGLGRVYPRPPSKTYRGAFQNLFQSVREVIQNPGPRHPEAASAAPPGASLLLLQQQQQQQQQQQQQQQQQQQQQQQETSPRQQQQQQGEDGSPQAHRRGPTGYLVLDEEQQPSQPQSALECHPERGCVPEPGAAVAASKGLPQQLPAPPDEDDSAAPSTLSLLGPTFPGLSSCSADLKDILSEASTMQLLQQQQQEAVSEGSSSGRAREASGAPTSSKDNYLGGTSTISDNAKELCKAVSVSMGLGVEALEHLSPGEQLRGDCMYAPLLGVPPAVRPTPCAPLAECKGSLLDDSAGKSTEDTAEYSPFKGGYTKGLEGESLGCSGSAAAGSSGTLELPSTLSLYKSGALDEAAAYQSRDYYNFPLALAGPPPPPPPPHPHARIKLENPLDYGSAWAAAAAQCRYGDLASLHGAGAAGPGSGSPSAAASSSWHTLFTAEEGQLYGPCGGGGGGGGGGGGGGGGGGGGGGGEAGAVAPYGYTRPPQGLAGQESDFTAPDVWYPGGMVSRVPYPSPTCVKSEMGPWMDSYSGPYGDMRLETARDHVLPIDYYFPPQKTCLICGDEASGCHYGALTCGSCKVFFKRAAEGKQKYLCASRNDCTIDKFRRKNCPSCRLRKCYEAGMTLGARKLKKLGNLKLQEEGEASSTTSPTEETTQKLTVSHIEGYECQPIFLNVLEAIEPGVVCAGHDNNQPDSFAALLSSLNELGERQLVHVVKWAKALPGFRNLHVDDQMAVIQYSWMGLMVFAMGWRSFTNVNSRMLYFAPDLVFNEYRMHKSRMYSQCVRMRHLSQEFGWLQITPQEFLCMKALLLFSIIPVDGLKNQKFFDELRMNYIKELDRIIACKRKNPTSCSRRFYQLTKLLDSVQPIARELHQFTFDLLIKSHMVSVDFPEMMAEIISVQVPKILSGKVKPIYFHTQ
The assay can be described thus: Degradation of androgen receptor (AR) protein in VCaP cells by Western blot. Particulars: percentage of degraded AR at 100 nM, VCaP cells, 16 h. An outline of the steps:
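AR and β-actin levels were read by Western blot with ECL detection, loading 30 μg lysate protein per well. Before lysis, VCaP cells seeded at 5×10^5/well and grown overnight were exposed to compound for 16 h, two wells per concentration, keeping DMSO at 0.1%.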
(In general: In western blotting, separated proteins are transferred to a membrane and probed.)

Assay [2] has as its system LNCaP/AR cells. The assay can be described thus: Inhibition of proliferation of LNCaP/AR prostate cancer cells (CCK-8).
Assay [3] has as its target T1, androgen receptor (AR). The assay can be described thus: Degradation of androgen receptor (AR) protein in VCaP cells by ELISA. Particulars: for inhibition at 0.1 µM: read-out: % degradation. On the technique in general: An ELISA detects its analyte on a solid surface through an enzyme-linked reagent.
[4] abbreviates: 144 h, proliferation of LNCap/AR cells, 6 days, CCK-8, read-out: IC50.
The mark [5] stands for this setting: percentage of degraded AR at 100 nM, VCaP cells, 16 h, ELISA.
The mark [6] stands for this setting: proliferation of LNCap/AR cells, 6 days, CCK-8, read-out: IC50.

Read-outs that look alike come from different tables or passages of the source. Some results are limits rather than exact numbers.

For orientation: IC50 means the concentration at which inhibition is half-maximal. Consider `N#Cc1ccc(O[C@H]2CC[C@H](N3Cc4nc(N5CCC(OC6CCN(c7cccc8c7C(=O)N(C7CCC(=O)NC7=O)C8=O)CC6)CC5)ccc4C3=O)CC2)cc1Cl` (some centres unmarked) [Compound 59, 2-chloro-4-(((1r,4r)-4-(2-(4-((1-(2-(2,6-dioxopiperidin-3-yl)-1,3-dioxoisoindolin-4-yl)piperidine-4-yl)oxy)piperidin-1-yl)-5-oxo-5H-pyrrolo[3,4-b]pyridin-6(7H)-yl)cyclohexyl)oxy)benzonitrile], for which the inhibition at 0.1 µM in assay [1] and in assay [3] (setting [5]) was < 25% throughout. Moreover, the IC50 in assay [2] (setting [4]) was > 1000 nM.
Turning to `CC1(C)[C@H](Oc2ccc(C#N)c(Cl)c2)C(C)(C)[C@H]1N1Cc2nc(N3CCC(CN4CCN(c5cc6c(cc5F)CN(C5CCC(=O)NC5=O)C6=O)CC4)CC3)ccc2C1=O` (some centres unmarked) [Compound 205], the inhibition at 0.1 µM in assay [1] is < 25%. Also, the IC50 in assay [2] (setting [4]) is < 100 nM.
`CC1(C)C(Oc2ccc(C#N)c(Cl)c2)C(C)(C)C1N1Cc2nc(N3CCC(CN4CCN(c5cc6c(cc5F)CN([C@@H]5CCC(=O)NC5=O)C6=O)CC4)CC3)ccc2C1=O` (some centres unmarked) [Compound 211]: in assay [1], the “% degradation” value is on record as “D (<25%)”. In assay [2] (setting [6]), the IC50 is 100 to 500 nM.
`CC1(C)[C@H](NC(=O)c2ccc(N3CCC(CN4CCN(c5cc6c(cc5F)CN(C5CCC(=O)NC5=O)C6=O)CC4)CC3)nc2)C(C)(C)[C@H]1Oc1ccc(C#N)c(Cl)c1` (some centres unmarked) [Compound 214] gave an inhibition at 0.1 µM in assay [1] of 50 to 79%. For the same molecule, the half-inhibitory concentration (IC50) in assay [2] (setting [4]) was < 100 nM.
On to `N#Cc1ccc(O[C@H]2CC[C@H](N3Cc4nc(N5CCC(CN6CCN(c7cccc8c7C(=O)N(C7CCC(=O)NC7=O)C8=O)CC6)CC5)ccc4C3=O)CC2)cc1Cl` (some centres unmarked) [Compound 217], for which, in assay [2] (setting [4]), the IC50 is > 1000 nM. Further, the inhibition at 0.1 µM in assay [3] (setting [5]) is < 25%.
For `N#Cc1ccc(OC2C[C@@H]3CN(C(=O)c4ccc(N5CCC(CN6CCN(c7ccc8c(c7)C(=O)N(C7CCC(=O)NC7=O)C8=O)CC6)CC5)nn4)C[C@@H]3C2)cc1Cl` (some centres unmarked) [Compound 218], the inhibition at 0.1 µM in assay [1] was < 25%. Also, the IC50 in assay [2] (setting [4]) was > 1000 nM.
In the case of `N#Cc1ccc(O[C@H]2CC[C@H](NC(=O)c3ccc(N4CCC(NC5CCN(c6cc7c(cc6F)C(=O)N(C6CCC(=O)NC6=O)C7=O)CC5)CC4)cc3)CC2)cc1Cl` (some centres unmarked) [Compound 219, N-((1r,4r)-4-(3-chloro-4-cyanophenoxy)cyclohexyl)-4-(4-((1-(2-(2,6-dioxopiperidin-3-yl)-6-fluoro-1,3-dioxoisoindolin-5-yl)piperidine-4-yl)amino)piperidin-1-yl)benzamide], in assay [1], the inhibition at 0.1 µM lay in the range of 25 to 49%. The molecule also registered an IC50 in assay [2] (LNCaP/AR, 144 h) of 500 to 1000 nM.
Take `CC1(C)[C@H](Oc2ccc(C#N)c(Cl)c2)C(C)(C)[C@H]1N1Cc2cc(N3CCC(CN4CCN(c5ccc6c(c5)CN(C5CCC(=O)NC5=O)C6=O)CC4)CC3)ccc2C1=O` (some centres unmarked) [Compound 248]: the inhibition at 0.1 µM in assay [1] is < 25%. Further, in assay [2] (LNCaP/AR, 144 h), the IC50 lay in the range of 100 to 500 nM.
For the molecule `CC1(C)[C@H](Oc2ccc(C#N)c(Cl)c2)C(C)(C)[C@H]1N1Cc2cc(N3CCC(CN4CCN(c5ccc6c(c5)C(=O)N(C5CCC(=O)NC5=O)C6=O)CC4)CC3)ccc2C1=O` (some centres unmarked) [Compound 249], in assay [1], the inhibition at 0.1 µM was < 25%. In addition, the IC50 in assay [2] (setting [4]) was 100 to 500 nM.
`CC1(C)[C@H](Oc2ccc(C#N)c(Cl)c2)C(C)(C)[C@H]1N1Cc2cc(N3CCC(CN4CCN(c5cc6c(cc5F)CN([C@@H]5CCC(=O)NC5=O)C6=O)CC4)CC3)ccc2C1=O` [Compound 250]: the “% degradation” value in assay [1] is given as “D (<25%)”; in assay [3], “D (key: A: >80%; B: 79%-50%; C: 49%-25%; D: <25%)”. Further, in assay [2] (setting [6]), the IC50 was in the range of 100 to 500 nM.
Molecule `CC1(C)[C@H](Oc2ccc(C#N)c(Cl)c2)C(C)(C)[C@H]1N1Cc2cc(N3CCC(CN4CCN(c5cc6c(cc5F)C(=O)N(C5CCC(=O)NC5=O)C6)CC4)CC3)ccc2C1=O` (some centres unmarked) [Compound 251] registered an inhibition at 0.1 µM in assay [1] of 25 to 49%. The IC50 in assay [2] (setting [4]) was in the range of 100 to 500 nM.
With “(2R,4R)-1-((S)-2-(2-((5-((2-((1r,3r)-3-(4-cyano-3-(trifluoromethyl) phenoxy)-2,2,4,4-tetramethylcyclobutyl)-1-oxoisoindolin-5-yl)amino)phenyl)oxy) acetylamino)-3,3-dimethylbutyryl)-4-hydroxy-N-((R)-1-(4-(4-methylthiazol-5-yl)phenyl)ethyl)pyrrole-2-formamide [Compound 16]”, the IC50 in assay [2] (setting [6]) was < 100 nM. Further, the “% degradation” value in assay [3] is given as “C (key: A: >80%; B: 79%-50%; C: 49%-25%; D: <25%)”.
As to “(2R,4R)-1-((S)-2-(2-((6-(2-((1R,3R)-3-(3-chloro-4-cyanophenoxy)-2,2,4,4-tetramethylcyclobutyl)-3-oxoisoindolin-5-yl)hex-5-yn-1-yl)oxy)acetylamino)-3,3-dimethylbutyryl)-4-hydroxy-N-((S)-1-(4-(4-methylthiazol-5-yl)phenyl)ethyl) pyrrolidine-2-carboxamide [Compound 5]”, the IC50 in assay [2] (setting [6]) was < 100 nM. The “% degradation” value in assay [3] (setting [5]) is “C (49%-25%)”.
“(2S,4R)-1-((S)-2-(2-(4-(3-(2((1s,3s)-3-(3-chloro-4-cyanophenoxy)-2,2,4,4-tetramethylcyclobutyl)-1-oxoisoindolin-5-yl)prop-2-yn-1-yl)piperidin-1-yl)acetylamino)-3,3-dimethylbutyryl)-4-hydroxy-N-((S)-1-(4-(4-methylthiazol-5-yl)phenyl)ethyl)pyrrolidine-2-carboxamide [Compound 39]”: the half-inhibitory concentration (IC50) in assay [2] (setting [6]) is < 100 nM. Also, in assay [3], the “% degradation” value is recorded as “C (key: A: >80%; B: 79%-50%; C: 49%-25%; D: <25%)”.
For “(2S,4R)-1-((S)-2-(4-(4-((2-((1r,3r)-3-(3-chloro-4-cyanophenoxy)-2,2,4,4-tetramethylcyclobutyl)-1-oxoisoindolin-5-yl)ethynyl)-1H-pyrazol-1-yl)butylamino)-3,3-dimethylbutanol)-4-hydroxy-N-((S)-1-(4-methylthiazol-5-yl)phenyl)ethyl)pyrrolidine-2-carboxamide [Compound 35]” the same measures were < 100 nM and “B (key: A: >80%; B: 79%-50%; C: 49%-25%; D: <25%)”.
